One assay addresses T1, HIPK1 (Myak) (Homo sapiens, UniProt Q86Z02).
T1 construct: purchased Thermo Fisher Scientific SelectScreen
Nature of the assay: SelectScreen kinase panel, Z′-LYTE kinase assay. Particulars: read-out: Inhibition percentage at 1 μM. The class given is biochemical. The procedure: Kinase panel screening was carried out using the SelectScreen Kinase Assay (Thermo Fisher Scientific, Waltham, MA, USA). Three complementary assay formats were applied: the Z′-LYTE kinase assay, LanthaScreen Eu kinase binding assay, and Adapta Universal kinase assay. The kinases selected for this study and the corresponding assay formats are summarised in Supplementary Table S1.
The Z′-LYTE Kinase Assay (Thermo Fisher Scientific, Waltham, MA, USA) was used to evaluate selected kinases’ activity, according to the manufacturer’s instructions (https://www.thermofisher.com/tw/zt/home/industrial/pharma-biopharma/drug-discovery-development/target-and-lead-identification-and-validation/kinasebiology/kinase-activity-assays/z-lyte/z-lyte-reactivity-table.html). This endpoint assay quantifies kinase activity by detecting peptide substrate phosphorylation. Briefly, a 2× mixture of selected kinase and relevant substrate was prepared in kinase buffer (0.01% polyoxyethylene lauryl ether (BRIJ-35), 50 mM 4-(2-hydroxyethyl)-1-piperazineethanesulfonic acid (HEPES), pH 7.5, 1 mM ethylene glycol-bis(β-aminoethyl ether)-N,N,N′,N′-tetraacetic acid (EGTA), and 10 mM MgCl2). After 1 h incubation at room temperature, 5 μl of 1:128 diluted development reagent solution was added, followed by an additional 1 h incubation. Fluorescence was recorded using a multimode plate reader.

The subject of the next assay is HCT-116. In words: Sulforhodamine B assay (cell proliferation). It counts as cell-based. Particulars: Homo sapiens, SRB assay, 72 h, mean ± SD. The procedure: (§1) Colorectal cell line, HCT-116, was purchased from the Bioresource Collection and Research Centre (BCRC, Hsinchu, Taiwan), while HT-29 was obtained from the American Type Culture Collection (ATCC, Manassas, VA, USA). Both cell lines were maintained in McCoy’s 5 A medium (with L-glutamine and 2.2 g/L NaHCO3, M4892, Sigma) supplemented with 10% foetal bovine serum (Corning Incorporated, NY, USA) and 1% penicillin–streptomycin–amphotericin B (100 unit/ml penicillin G, 0.1 mg/ml streptomycin sulphate, 0.25 μg/ml amphotericin B, Corning Incorporated, NY, USA). All cultures were maintained in a humidified incubator at 37 °C with 5% CO2.
(§2) Cells were seeded in 96-well plates at a density of 3 × 10^3 cells/well in 100 μl of culture medium and treated with compounds at the indicated concentrations for 72 h. After treatment, cells were fixed with 10% trichloroacetic acid for 20 min and washed with H2O. The cells were then stained with 0.4% sulforhodamine B (SRB) in 1% acetic acid for 20 min, followed by two washes with 1% acetic acid. After the well-dried, the protein-bound dye was dissolved in 100 µl of 10 mM Tris base solution, and the absorbance was measured at 515 nm using an ELISA reader (Molecular Device, Sunnyvale, CA, USA).

Another assay relates to HT-29. In words: Sulforhodamine B assay (cell proliferation). The conditions noted are these: Homo sapiens, SRB assay, 72 h, mean ± SD. The class given is cell-based. The procedure: as §1, §2

T1 sequence (Q86Z02 whole entry): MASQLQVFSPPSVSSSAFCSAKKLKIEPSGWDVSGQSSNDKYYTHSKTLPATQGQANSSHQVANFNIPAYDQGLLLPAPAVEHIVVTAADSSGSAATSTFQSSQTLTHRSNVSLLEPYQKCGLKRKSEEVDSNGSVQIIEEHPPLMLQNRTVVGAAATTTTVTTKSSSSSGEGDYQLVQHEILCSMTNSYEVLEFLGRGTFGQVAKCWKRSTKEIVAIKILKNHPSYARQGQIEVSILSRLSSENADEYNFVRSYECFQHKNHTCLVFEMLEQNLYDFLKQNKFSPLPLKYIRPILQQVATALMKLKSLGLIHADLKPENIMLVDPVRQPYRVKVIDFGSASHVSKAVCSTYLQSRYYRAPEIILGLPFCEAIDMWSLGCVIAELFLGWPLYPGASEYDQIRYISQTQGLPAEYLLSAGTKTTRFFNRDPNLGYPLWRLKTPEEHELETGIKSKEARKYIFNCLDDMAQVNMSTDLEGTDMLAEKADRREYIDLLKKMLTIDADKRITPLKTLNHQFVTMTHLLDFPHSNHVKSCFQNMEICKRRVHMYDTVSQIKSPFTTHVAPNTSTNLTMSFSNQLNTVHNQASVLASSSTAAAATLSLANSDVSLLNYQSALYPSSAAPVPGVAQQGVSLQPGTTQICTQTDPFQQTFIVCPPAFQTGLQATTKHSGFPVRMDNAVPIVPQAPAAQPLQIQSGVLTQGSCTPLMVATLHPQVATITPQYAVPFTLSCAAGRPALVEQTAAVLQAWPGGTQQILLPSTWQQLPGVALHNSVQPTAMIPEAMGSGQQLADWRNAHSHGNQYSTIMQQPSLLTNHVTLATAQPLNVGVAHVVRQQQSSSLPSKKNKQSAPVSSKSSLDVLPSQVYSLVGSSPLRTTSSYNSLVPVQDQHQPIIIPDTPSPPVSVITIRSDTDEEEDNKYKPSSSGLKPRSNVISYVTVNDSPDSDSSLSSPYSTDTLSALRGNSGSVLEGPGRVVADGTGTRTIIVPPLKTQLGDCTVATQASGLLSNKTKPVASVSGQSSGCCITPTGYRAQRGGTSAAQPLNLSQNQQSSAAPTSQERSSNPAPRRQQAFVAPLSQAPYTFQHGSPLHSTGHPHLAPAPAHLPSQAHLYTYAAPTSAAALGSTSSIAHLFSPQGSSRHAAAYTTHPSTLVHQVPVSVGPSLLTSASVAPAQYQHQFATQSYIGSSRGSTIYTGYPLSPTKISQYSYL

On to `O=C(/C=C/c1ccc(O)c(O)c1)CCCCn1ccc2c(O)cccc21` [Compound 13a, (E)-1-(3,4-dihydroxyphenyl)-7-(4-hydroxy-1H-indol-1-yl)hept-1-en-3-one], for which the inhibition at 1 µM on HIPK1 (Myak) came out at 2%. For the same molecule, the GI50 with HCT-116 came to 14.7 ± 0.8 µM; in the assay with HT-29 it was 10.4 ± 0.6 µM.

For the origin of these results see PMC12624955, “Exploring diarylheptanoid derivatives to target LIMK1 as potential agents against colorectal cancer” (Journal of Enzyme Inhibition and Medicinal Chemistry, 2025).
